# Activity calls are given as the source filed them.
# Legend:
# [1] = biological target: T1, Microphthalmia-associated transcription factor (Homo sapiens, UniProt O75030); assay: reducers of TRPM1 reporter luminescence, concentration series – cell-based, SK-MEL-5, cherry-picked, set 3, MITF inhibitor project, dose response (AID 493073); type: functional;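 also: SK-MEL-5 melanoma cells with luciferase driven by the MITF target TRPM1 promoter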
# T1 sequence (O75030 whole entry): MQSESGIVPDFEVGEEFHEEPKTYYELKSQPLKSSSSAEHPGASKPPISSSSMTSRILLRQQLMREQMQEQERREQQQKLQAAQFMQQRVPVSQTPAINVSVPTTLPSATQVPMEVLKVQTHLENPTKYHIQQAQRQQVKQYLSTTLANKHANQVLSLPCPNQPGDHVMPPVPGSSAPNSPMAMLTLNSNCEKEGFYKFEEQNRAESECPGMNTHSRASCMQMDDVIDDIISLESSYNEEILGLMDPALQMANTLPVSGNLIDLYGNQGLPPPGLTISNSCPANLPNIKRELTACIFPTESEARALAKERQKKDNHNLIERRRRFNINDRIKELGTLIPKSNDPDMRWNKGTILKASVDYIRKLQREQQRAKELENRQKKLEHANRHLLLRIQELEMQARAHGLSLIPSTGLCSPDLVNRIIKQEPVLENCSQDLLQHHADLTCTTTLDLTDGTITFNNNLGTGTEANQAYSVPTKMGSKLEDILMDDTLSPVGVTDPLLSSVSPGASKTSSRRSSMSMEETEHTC
# [2] = biological target: T2, Ubiquitin-conjugating enzyme E2 N (Homo sapiens, UniProt P61088); type: functional;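 also: Dose-response confirmation in a TR-FRET assay detecting UBC13-driven polyubiquitin chain formation, inhibition measured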
# T2 sequence (P61088 whole entry): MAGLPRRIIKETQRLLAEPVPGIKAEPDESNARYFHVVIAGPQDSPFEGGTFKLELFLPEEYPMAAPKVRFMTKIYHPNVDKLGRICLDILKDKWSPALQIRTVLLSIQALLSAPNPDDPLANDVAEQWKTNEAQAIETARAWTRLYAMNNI
# [3] = test system: Streptococcus sp. 'group A'; assay: Streptococcus pyogenes SK(-)GAS viability under kanamycin – luminescence, BacTiterGlo, confirmation, counter-screen for streptokinase expression inhibitor project, dose response (AID 1900); type: functional, organism-based
# Streptokinase A = biological target: T3, Streptokinase A (Streptococcus pyogenes serotype M1, UniProt P10520); assay: viability-normalized secreted streptokinase activity reduction – plasminogen activation absorbance, OD405, dose response (AID 1914); type: functional, Streptococcus pyogenes M1 GAS;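 also: secreted streptokinase activity via plasminogen activation per viability signal from cell pellet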
# T3 sequence (P10520 whole entry): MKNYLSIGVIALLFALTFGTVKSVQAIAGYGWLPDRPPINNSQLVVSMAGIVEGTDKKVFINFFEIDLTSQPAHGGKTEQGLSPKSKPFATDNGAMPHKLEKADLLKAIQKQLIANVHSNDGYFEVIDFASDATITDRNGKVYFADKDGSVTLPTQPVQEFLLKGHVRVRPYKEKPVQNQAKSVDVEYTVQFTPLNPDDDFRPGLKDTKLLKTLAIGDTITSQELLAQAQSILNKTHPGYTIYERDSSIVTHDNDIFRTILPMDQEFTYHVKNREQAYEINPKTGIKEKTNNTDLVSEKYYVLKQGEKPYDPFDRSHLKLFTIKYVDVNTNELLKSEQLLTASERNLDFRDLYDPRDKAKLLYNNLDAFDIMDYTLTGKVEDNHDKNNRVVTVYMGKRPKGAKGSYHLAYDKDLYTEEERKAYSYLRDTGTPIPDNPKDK
# [4] = biological target: Disintegrin and metalloproteinase domain-containing protein 17 (Homo sapiens, UniProt P78536); assay: inhibition of ADAM17 substrate cleavage – biochemical, quenched FRET substrate, counter-screen for ADAM10 exosite inhibitor project, dose response (AID 743253)
# Sequence of Disintegrin and metalloproteinase domain-containing protein 17 (P78536 whole entry, the tested form may be a part): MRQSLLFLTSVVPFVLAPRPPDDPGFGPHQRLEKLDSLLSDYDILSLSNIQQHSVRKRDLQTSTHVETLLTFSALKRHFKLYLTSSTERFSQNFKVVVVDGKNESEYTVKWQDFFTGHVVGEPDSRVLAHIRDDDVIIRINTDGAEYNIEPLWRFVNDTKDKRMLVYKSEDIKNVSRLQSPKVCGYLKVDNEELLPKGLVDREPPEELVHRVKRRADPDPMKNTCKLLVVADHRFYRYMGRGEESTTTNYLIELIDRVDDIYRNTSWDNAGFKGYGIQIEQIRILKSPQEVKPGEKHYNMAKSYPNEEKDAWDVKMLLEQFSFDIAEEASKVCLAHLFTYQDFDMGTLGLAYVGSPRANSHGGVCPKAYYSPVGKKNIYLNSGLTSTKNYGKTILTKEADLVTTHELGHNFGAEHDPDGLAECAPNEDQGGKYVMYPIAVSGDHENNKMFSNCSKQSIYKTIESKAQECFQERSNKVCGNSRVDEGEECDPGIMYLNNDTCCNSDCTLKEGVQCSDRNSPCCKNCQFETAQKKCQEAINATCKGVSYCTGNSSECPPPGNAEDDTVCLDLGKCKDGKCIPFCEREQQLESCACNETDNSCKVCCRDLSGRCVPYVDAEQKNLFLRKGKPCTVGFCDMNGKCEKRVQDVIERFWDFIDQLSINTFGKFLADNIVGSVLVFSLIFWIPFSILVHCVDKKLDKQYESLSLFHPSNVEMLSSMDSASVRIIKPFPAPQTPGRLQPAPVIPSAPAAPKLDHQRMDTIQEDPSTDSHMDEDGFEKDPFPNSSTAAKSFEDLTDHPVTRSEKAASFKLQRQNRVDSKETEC
# Streptococcus = assay: GAS UMAA2166 growth inhibition – luminescence, BacTiterGlo, counter-screen for streptokinase expression inhibitor project, dose response (AID 1915); type: functional, organism-based;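 also: potency for reduction of bacterial viability or growth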
# Leucine aminopeptidase = biological target: T4, Leucine aminopeptidase (Plasmodium falciparum 3D7, UniProt Q8IL11); assay: P. falciparum M17LAP inhibitors, primary screen, biochemical, fluorogenic H-Leu-NHMec substrate, 1536-well (AID 1619); type: functional
# T4 sequence (Q8IL11 whole entry): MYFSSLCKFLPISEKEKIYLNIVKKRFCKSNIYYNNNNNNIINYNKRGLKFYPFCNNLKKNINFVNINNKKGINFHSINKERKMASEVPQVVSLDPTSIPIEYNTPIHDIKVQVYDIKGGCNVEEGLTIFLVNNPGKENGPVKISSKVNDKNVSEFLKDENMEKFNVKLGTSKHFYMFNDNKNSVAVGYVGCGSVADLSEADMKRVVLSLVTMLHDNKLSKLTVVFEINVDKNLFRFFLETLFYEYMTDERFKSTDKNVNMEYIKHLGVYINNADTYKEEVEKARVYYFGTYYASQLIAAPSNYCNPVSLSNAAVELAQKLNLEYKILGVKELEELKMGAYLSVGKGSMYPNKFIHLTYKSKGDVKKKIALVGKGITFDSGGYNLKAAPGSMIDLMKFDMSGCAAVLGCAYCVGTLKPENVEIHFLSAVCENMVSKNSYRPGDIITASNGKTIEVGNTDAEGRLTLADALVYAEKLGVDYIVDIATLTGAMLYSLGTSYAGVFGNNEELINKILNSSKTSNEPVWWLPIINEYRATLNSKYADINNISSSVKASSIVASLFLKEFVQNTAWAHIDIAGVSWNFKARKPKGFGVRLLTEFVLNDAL
# H4 = assay: Luminescence Cell-Based Dose Response HTS to Identify Activators of 5'UTR Stem-Loop Driven Prion Protein mRNA Translation in H4 Neuroglioblastoma Cells. [Related pubchem assays: 1829 (Project Summary), 1814 (Primary HTS)]; type: functional; details: Homo sapiens
# Cytochrome P450 2C9 = Cytochrome P450 2C9 (Homo sapiens, UniProt P11712)
# Sequence of Cytochrome P450 2C9 (P11712 whole entry): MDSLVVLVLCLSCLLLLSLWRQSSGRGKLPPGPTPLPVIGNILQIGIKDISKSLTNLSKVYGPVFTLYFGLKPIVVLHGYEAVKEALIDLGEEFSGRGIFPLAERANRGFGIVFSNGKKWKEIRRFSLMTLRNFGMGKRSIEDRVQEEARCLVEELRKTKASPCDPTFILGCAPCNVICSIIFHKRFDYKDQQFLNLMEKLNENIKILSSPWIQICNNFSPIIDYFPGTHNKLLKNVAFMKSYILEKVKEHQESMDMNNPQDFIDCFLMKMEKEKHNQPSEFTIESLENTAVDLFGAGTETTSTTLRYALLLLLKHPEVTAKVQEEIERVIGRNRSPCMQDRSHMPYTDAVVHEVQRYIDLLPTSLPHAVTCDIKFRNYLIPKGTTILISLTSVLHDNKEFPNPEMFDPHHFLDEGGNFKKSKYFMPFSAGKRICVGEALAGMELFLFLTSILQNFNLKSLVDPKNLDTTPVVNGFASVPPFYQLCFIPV
# [5] = Luminescence Cell-Based Dose Response HTS to Identify Activators of Luciferase Translation or Activity in H4 […] Cells. [Related pubchem assays: 1829 (Project Summary), 1814 (Primary HTS)]; type: functional
# Cytochrome P450 1A2 = biological target: T5, Cytochrome P450 1A2 (Homo sapiens, UniProt P05177);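 also: PubChem cytochrome P450 panel assay, CYP1A2 panel member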
# T5 sequence (P05177 whole entry): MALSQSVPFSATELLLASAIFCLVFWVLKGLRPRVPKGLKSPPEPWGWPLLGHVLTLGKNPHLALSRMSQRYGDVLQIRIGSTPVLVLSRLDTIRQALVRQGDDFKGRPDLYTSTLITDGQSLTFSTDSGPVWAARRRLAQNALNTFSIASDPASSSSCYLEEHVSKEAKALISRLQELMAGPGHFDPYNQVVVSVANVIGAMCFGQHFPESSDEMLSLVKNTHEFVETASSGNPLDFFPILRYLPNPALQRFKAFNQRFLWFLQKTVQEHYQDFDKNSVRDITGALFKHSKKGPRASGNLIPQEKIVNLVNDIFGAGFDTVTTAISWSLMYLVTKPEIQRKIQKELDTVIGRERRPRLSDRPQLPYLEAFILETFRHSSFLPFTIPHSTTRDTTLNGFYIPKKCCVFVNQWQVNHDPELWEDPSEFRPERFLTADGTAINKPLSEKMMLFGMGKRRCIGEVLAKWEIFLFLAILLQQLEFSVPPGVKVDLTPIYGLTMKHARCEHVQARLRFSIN
# [6] = Luminescence Cell-Based Dose Confirmation HTS to Identify Activators of 5'UTR Stem-Loop Driven Alpha-Synuclein mRNA Translation in H4 Neuroglioblastoma Cells. [Related pubchem assays: 1829 (Project Summary), 1814 (Primary HTS)]; type: functional
# cells = type: functional
# [7] = biological target: T6, Corticotropin-releasing factor receptor 2/Corticotropin-releasing factor-binding protein (Homo sapiens, UniProt P24387+Q13324); assay: activators of CRF receptor 2 with binding protein – uHTS hits, confirmation (AID 602473); type: functional; details: read-out: EC50_Mean
# T6 sequence (Q13324 whole entry): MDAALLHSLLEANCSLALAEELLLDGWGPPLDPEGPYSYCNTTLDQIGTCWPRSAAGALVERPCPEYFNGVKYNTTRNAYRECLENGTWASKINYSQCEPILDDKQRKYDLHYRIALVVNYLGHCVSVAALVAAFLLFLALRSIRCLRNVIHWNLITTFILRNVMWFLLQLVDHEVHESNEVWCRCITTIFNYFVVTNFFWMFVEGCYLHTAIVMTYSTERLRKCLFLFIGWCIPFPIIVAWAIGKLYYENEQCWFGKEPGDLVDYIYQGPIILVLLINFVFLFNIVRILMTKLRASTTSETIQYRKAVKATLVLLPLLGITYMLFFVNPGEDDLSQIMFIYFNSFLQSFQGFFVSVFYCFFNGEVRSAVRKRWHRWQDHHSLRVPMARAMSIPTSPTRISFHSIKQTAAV
# T6 sequence (P24387 whole entry): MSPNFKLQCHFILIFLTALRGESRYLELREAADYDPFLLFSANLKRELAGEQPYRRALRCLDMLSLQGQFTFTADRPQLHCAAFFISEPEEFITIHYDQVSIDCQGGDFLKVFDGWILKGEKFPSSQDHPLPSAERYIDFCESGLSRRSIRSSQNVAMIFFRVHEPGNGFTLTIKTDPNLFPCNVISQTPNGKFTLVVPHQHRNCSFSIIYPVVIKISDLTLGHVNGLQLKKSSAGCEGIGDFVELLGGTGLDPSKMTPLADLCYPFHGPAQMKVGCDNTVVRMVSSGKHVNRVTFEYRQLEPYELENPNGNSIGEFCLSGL
# [8] = reduction of Shn3 3'UTR-driven luciferase in osteoblasts – cell-based, Clone20 osteoblasts, firefly luciferase, cherry-picked, dose response (AID 624132); type: functional;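 also: firefly luciferase luminescence from reporter carrying the Shn3 3'UTR in osteoblasts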
# INS1 = assay: INS-1E survival protection against cytokine death – cell-based, luminescence, retest, dose response (AID 449756); type: functional; details: Rattus norvegicus;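 also: cell death triggered by IL-1 beta plus TNF-alpha plus IFN-gamma mixture; protective hits raise ATP signal compared with cytokine alone wells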
# [9] = loss of viability in HepG2 cells – cell-based, CellTiter-Glo, cherry-picked, cytotoxicity control for Shn3 inhibitor project, dose response (AID 624134); type: functional
# [10] = non-specific 3'UTR reporter inhibition in Clone20-Shn3RL – cell-based, Renilla luciferase, cherry-picked, counter-screen for Shn3 inhibitor project, dose response (AID 624133); type: functional
# [11] = viability of HCT116 lacking mutant beta-catenin – cell-based, human colon tumor, dose response (AID 1045); type: functional;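 also: HCT116 colon tumor cells with beta catenin knocked out; cells exposed to compound for 60 hours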
# [12] = viability of PTEN-deleted HCT116 cells – cell-based, HCT116 PTEN knockout, dose response (AID 1047); type: functional;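 also: HCT116 colon tumor cells with PTEN knocked out; cells exposed to compound for 60 hours before readout; potency for loss of cell viability measured by luminescence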
# Paired box protein Pax-8 = Paired box protein Pax-8 (Homo sapiens, UniProt Q06710); assay: PAX8 transcriptional activity inhibition in RMG-I – RMG-I cells, luciferase, cherry-pick, dose response (AID 687027); type: functional, cell-based;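 also: luciferase reporter driven by Pax8 target thyroperoxidase promoter measured by SteadyGlo luminescence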
# Sequence of Paired box protein Pax-8 (Q06710 whole entry): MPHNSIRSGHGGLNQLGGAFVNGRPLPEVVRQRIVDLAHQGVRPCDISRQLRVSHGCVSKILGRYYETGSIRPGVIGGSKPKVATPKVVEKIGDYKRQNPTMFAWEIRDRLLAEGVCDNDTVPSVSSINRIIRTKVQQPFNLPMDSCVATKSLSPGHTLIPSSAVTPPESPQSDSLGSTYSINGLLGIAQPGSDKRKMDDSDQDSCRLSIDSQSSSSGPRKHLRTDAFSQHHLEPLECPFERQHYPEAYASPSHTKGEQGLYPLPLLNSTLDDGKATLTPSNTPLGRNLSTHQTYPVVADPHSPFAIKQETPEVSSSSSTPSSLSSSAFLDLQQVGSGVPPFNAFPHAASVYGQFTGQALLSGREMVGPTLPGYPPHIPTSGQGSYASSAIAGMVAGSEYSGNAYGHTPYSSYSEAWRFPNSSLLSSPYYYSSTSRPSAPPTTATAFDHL
# [13] = OVCAR8 cell viability loss – plate reader, dry powder samples, PAX8 project, dose response (AID 743197); type: functional, cell-based; details: OVCAR-8
smiles,measurement,setting,value
CC1CCN(CC2C(=O)O[C@@H]3C[C@@]4(C)CCC[C@H](C)C4=C[C@H]23)CC(C)(C)C1 (some centres undefined),AC50,[1],16.1 µM (active)
CCN(CC)CCNC(=O)c1c(C)n(-c2ccccc2)c2cc(Br)c(OC)cc12,IC50,[2],> 20 µM (inactive)
same,AC50,[1],12.9 µM (active)
O=C(Nc1ccc(N2CCCC2)c(S(=O)(=O)Nc2cccc(C(F)(F)F)c2)c1)c1cccs1,EC50,[3],3.38 µM (active)
same,EC50,Streptokinase A,> 150 µM (not active)
same,IC50,[4],> 69.5 µM (inactive)
same,EC50,Streptococcus,10.5 µM (active)
CCOc1ccc(NC(=O)CSc2nnc[nH]2)c([N+](=O)[O-])c1,IC50,Leucine aminopeptidase,5.46 µM (active)
O=C(NCC(=O)N1CCCC1C(=O)O)OC1CCCCC1 (centres undefined),IC50,Leucine aminopeptidase,39 µM (active)
O=C(CN1C(=O)C2C3C=CC(C3)C2C1=O)Nc1ccc2c(c1)OCCO2 (centres undefined),EC50,H4,19 µM (active)
same,AC50,Cytochrome P450 2C9,0.316 µM (inconclusive)
same,EC50,[5],22.4 µM (active)
same,IC50,Leucine aminopeptidase,21 µM (active)
same,AC50,Cytochrome P450 1A2,15.8 µM (inconclusive)
same,EC50,[6],15.1 µM (active)
COc1cc(OC)c2c(OC)cccc2n1,IC50,cells,30.1 µM (active)
CC(=O)c1ccc(N2CCC(c3cc(-c4ccc(Cl)cc4Cl)n[nH]3)CC2)c([N+](=O)[O-])c1,EC50,Streptokinase A,> 150 µM (not active)
same,IC50,[4],> 69.5 µM (inactive)
same,AC50,Cytochrome P450 1A2,14.1 µM (inconclusive)
Cc1cccc(C(=O)NC(=S)NNC(=O)COc2c(C)cccc2C)c1,EC50,[7],1.65 µM (active)
same,IC50,Leucine aminopeptidase,59.1 µM (active)
O=C(c1cn[nH]c1)c1cc(F)ccc1O,IC50,Leucine aminopeptidase,20.9 µM (active)
CCCOC(=O)c1ccc(NC(=O)c2ccc(Br)o2)cc1,IC50,cells,30.5 µM (active)
CN(C)C1=NC[C@H](Cc2ccccc2)N1CCCC1CCCCC1,AC50,[8],1.47 µM (active)
same,AC50,INS1,7.42 µM (active)
same,AC50,[9],20.3 µM (active)
same,AC50,[10],4.98 µM (active)
C#CCn1/c(=N/C(=O)c2ccc(S(=O)(=O)N3CCc4ccccc4C3)cc2)sc2cc(S(N)(=O)=O)ccc21,AC50,[8],1.29 µM (active)
same,AC50,INS1,2.68 µM (active)
same,EC50,[11],1.31 µM (active)
same,EC50,[12],1.62 µM (active)
same,AC50,[9],37.3 µM (active)
same,AC50,[10],23.9 µM (active)
CC(O)(c1ccncc1)c1nc(-c2cccc(C(F)(F)F)c2)cs1 (centres undefined),AC50,[8],5.34 µM (active)
same,AC50,[9],> 70 µM (inactive)
same,AC50,[10],12.5 µM (active)
CC(/C=C/c1ccccc1)=N\NC(=O)c1ccc2c(c1)OCCO2,IC50,cells,25.7 µM (active)
Cc1ccc(S(=O)(=O)Nc2ccc3c(c2)C(=O)N([C@H](C)CO)C[C@@H](C)[C@H](CN(C)S(=O)(=O)c2ccc(Cl)cc2)OCCCC[C@H](C)O3)cc1,AC50,Paired box protein Pax-8,8.13 µM (active)
same,AC50,[13],> 70 µM (inactive)
